Key:
[1] = Reversal potential and permeability ratio under bi-ionic conditions (voltage ramps); assay type: biochemical; details: 10 μM; for permeability ratio pK/pNa: Goldman-Hodgkin-Katz equation from reversal potential; for estimated reversal potential: internal 180 mM NaCl, 20 mM KCl, external 20 mM NaCl, 180 mM KCl, n=6
Procedure: This can be determined by measuring the reversal potential under bi-ionic conditions and by applying rapid voltage ramps to measure reversal from open channels. For the determination of permeability ratios, a voltage protocol (detailed below) was applied 100 times to the membrane, while a gradient of ions was set through the membrane (internal solution: 180 mM NaCl, 20 mM KCl, 30 mM HEPES, pH adjusted to 7.4 with NaOH; external solution: 20 mM NaCl, 180 mM KCl, 30 mM HEPES, pH adjusted to 7.4 with NaOH). The protocol started from the holding potential (0 mV), followed by a jump to 100 mV during 100 ms, then a ramp of 1000 ms until −100 mV, maintenance of the voltage at −100 mV for 100 ms before returning to the initial 0 mV holding potential. Calculation of the variance at every isochrone allowed determination of the reversal potential (Vrev) as the voltage at which the variance is minimized. The permeability ratio for
was calculated from the Goldman-Hodgkin-Katz (GHK) equation by assuming that reversal potential is the equilibrium membrane voltage reached by a selective membrane in the presence of that gradient of ions. This leads to the equation 1: […]
where F is the Faraday constant, R is the gas constant, T is the absolute temperature, [K^+]i, and [K^+]e are the internal and external K^+ concentrations, respectively, and [Na^+]i, and [Na^+]e are the internal and external Na^+ concentrations, respectively.
Multiple voltage ramps (N=100) from +100 mV to −100 mV were applied in the presence of 10 μM 6-A-10 (FIG. 18) and 10 μM 6-O-10 (FIG. 20). The reversal potential for each case was determined as that voltage which produces the minimum of variance (FIGS. 19 and 21). In FIGS. 19 and 21, the curves are the variance calculated from experiments in FIGS. 18 and 20, respectively.
In these experiments, the internal concentration of Na^+ in the pipette was 9-fold higher than the external concentration, whereas the K^+ gradient was reversed (internal solution: 180 mM NaCl, 20 mM KCl, 30 mM HEPES, pH 7.4; external solution: 20 mM NaCl, 180 mM KCl, 30 mM HEPES, pH 7.4). If the channels are K^+ selective, the reversal potential will be close to the K^+ Nernst potential, which is 58 mV. In contrast, if the channels are highly Na^+ selective, then the reversal potential will be close to the Na^+ Nernst potential (−58 mV).

B. subtilis membrane = assay: DiSC3(5) depolarization assay, lariat ethers; assay type: cell-based, Bacillus subtilis; details: for DiSC3(5) release: 2 μM, cation-free dextrose solution
Procedure: Dialkylated lariat ethers LEC6-LEC14 were then tested for their ability to depolarize a B. subtilis membrane using the fluorescent dye 3,3-dipropylthiadicarbocyanine (DiSC3(5)), which undergoes membrane voltage-dependent partitioning between the intracellular and the extracellular medium. FIGS. 23-31 show the time course of the DiSC3(5) fluorescence due to the activity of dialkylated lariat ethers with alkyl chains 6 to 14 carbons in length. The experiment was performed in a NMDG-MeSO3 solution (100 mM NMDG, 10 mM HEPES, pH adjusted to 7.4 with methanesulfonic acid). The events are: t1, addition of dye; t2, addition of B. subtilis; t3, addition of a 2 M KCl or a 2 M NMDG-Cl solution up to a final concentration of 60 mM; t4, addition of dialkylated lariat ether up to 2 μM. Control experiments were performed that were similar to the two previously described experiments, with the exception that additional NMDG-MeSO3 solution without cells was added at timepoint t2. The experiments were normalized relative to the final fluorescence intensity in the control experiments, as described below.
To conduct the experiments shown in FIGS. 23-31, a 2-mL liquid culture of B. subtilis cells was grown at 37° C. in LB media until OD600=0.600, and then collected by centrifugation at 2000 rpm during 3 min. The bacteria were washed once in NMDG-MeSO3 solution (100 mM NMDG, 10 mM HEPES, pH adjusted to 7.4 with methanesulfonic acid) or dextrose solution (200 mM dextrose, 10 mM Tris, pH adjusted to 7.4 with HCl) depending on the experiment. The centrifugation step was repeated and the bacteria were resuspended until OD600=1.0 in the same solution. The working dye solution was a 200 μM solution of DiSC3(5) (3,3′-dipropylthiadicarbocyanine iodide; Tokyo Chemical Industry) in DMSO. […] After 150 sec (timepoint t3, 250 sec) the fluorescence stabilized to a minimum intensity and 100 μL of 2M NMDG-Cl, 2M NaCl or 2 M KCl solution was added to reach a about 60 mM final concentration of the salt. […] Fluorescence intensity was recorded each second using a Horiba Fluoromax 4 spectrometer (excitation wavelength=640 nm; emission wavelength=670 nm). […] To normalize the fluorescence, experiments in the same conditions but without adding bacteria were performed, normalization was done by dividing the fluorescence by the final fluorescence level of these experiments.
Cell hyperpolarization (more negatively charged inside the cell) results in an uptake of the dye, while cell membrane depolarization (more positively charged inside the cell) results in a release of the dye. The accumulation of the dye in the interior of the cell can be detected by a decrease in fluorescence due to self-quenching, which enables the dye to be utilized as an indirect reporter of changes in cell membrane voltage. […]

Row | Compound | permeability ratio pK/pNa [1] | estimated reversal potential [1] [mV] | relative DiSC3(5) release in the presence of different cations (B. subtilis membrane; 2 μM compound, 60 mM KCl, NaCl or NMDG-Cl, NMDG-MeSO3 solution, 25° C) | DiSC3(5) release (B. subtilis membrane; 60 mM KCl added) | DiSC3(5) release (B. subtilis membrane; absence of any external cation)
1 | CCCCCCCCCC(=O)c1ccc2c(c1)OCCOCCOCCOCCOCCO2 [Compound 6-O-10, 1-(2,3,5,6,8,9,11,12,14,15-decahydrobenzo[b][1,4,7,10,13,16]hexaoxacyclooctadecin-18-yl)decan-1-one] | 1.3 | 6.5±0.6 |  |  | 
2 | CCCCCCCCCCN1CCOCCOCCN(CCCCCCCCCC)CCOCCOCC1 [LEC10, Didecyl diaza(18-crown-6)] |  |  | no significant differences | large DiSC3(5) release | same effect was also observed
3 | CCCCCCCCCCc1ccc2c(c1)OCCOCCOCCOCCOCCO2 [Compound 6-A-10, 18-decyl-2,3,5,6,8,9,11,12,14,15-decahydrobenzo[b][1,4,7,10,13,16]hexaoxacyclooctadecine] | 1.4 | 8.0±0.8 |  |  | 

— patent publication US20230060873A1, “COMPOUNDS AND METHODS FOR FORMING ION CHANNELS IN BIOLOGICAL MEMBRANES” (Washington University, priority 2021, published 2023)
